Data set [1] relates to normal fibroblasts. Description: Lysosomal cystine content, cystine binding protein assay. The data set is classed as cell-based, human. As for the experimental part:
(§1) Intracellular lysosomal free cystine was determined using a cystine binding protein (CBP) assay (Oshima et al, 1974 J. Biol. Chem., 249:6033-6039). CBP was procured from Riverside Scientific. The assay has a sensitivity of 0.1 μM. Total cell protein was determined by a modification of the Lowry method (Lowry O. et al 1951 J. Biol. Chem., 193:265-275). Statistical analyses were performed using paired t test for means with SSPS for Windows. Results are mean+/−1.0 SD (FIG. 3).
(§2) Normal fibroblast lysosomes were loaded with cystine by the addition of 0.5 mM cystine dimethylester (CDME, Sigma) to normal culture medium for 1 hour before treatment (Pisoni, R L, et al, 1992 Somat. Cell. Mol. Genet., 18:1-6). The cells were treated with apoptotic triggers, leaving CDME in the medium to prevent lysosomal cystine loss, and then analyzed for apoptosis.
(§3) The lysosomal cystine content of normal fibroblasts was also altered as follows. Normal fibroblasts also at passage 7-13 were pretreated with 0.5 mM CDME for 1 hour, increasing the cystine content of their lysosomes to the cystinotic range (0.47 to 1.95 nmol of cystine per mg of protein). […]
In another experiment, the cystine content was decreased in cystinotic cells from 2.3 to 0.5 nmols cystine/10^6 cells by pretreatment with MEA before incubation in cystine-free and serum-free Ham F12 medium. […] Cells were stained with CaspACE and analyzed. […]

Data set [2] relates to GM005399 cells. The experiment in a line: Apoptosis on serum withdrawal, CaspACE. The format is cell-based, human. As to conditions: serum withdrawal and CDME. As for the experimental part:
Induction of apoptosis and assays for its detection were performed using commercially available reagents. Normal and cystinotic fibroblasts were matched for passage number (±3) and cell density, and then exposed to an apoptotic trigger. One apoptotic trigger used was TNF-a (30 ng/mL) with actinomycin D (2.5 μg/mL) for 16 hours. Another trigger was anti-Fas antibody (500 ng/mL) with actinomycin D (2.5 μg/mL) for 16 hours. A third trigger to induce apoptosis in the cells was Ultraviolet B light (60 mJ). See, e.g., previously described protocols of Aggarwal B B, 1992 Immunol. Ser., 56:61-78; Higuchi M. et al, 1995 J. Immunol. Meth., 178:173-181; Itoh N, et al, 1991 Cell, 66:233-243; Itoh N. et al, 1993 J. Biol. Chem., 268:10932-10937. Serum withdrawal was also used as a apoptotic stimulus (Lieberthal W, et al, 1998 Am. J. Physiol. 275:F691-F702; Verzola D. et al, 2001 Exp Nephrol., 9:366-371; Iglesias J. et al, 1999 Am. J. Physiol. 277:F711-F712; Kulkarni G V, et al, 1994 J. Cell Sci., 107:1169-1179), in which case the cells were incubated in F12 medium without serum for 24 hours and then analyzed for apoptosis.
1. […] The cells were visually enumerated by fluorescence microscopy, scoring a minimum of five fields (250 to 300 cells) for fluorescence in triplicate followed by counting all cells in the same field by light microscopy, with a minimum of 750 cells scored per condition. […]

The subject of data set [3] is human renal proximal tubule epithelial cells. Description: Effect of various compounds on apoptosis, CaspASE staining and FACS. The data set is classed as cell-based. As for the experimental part:
Normal and cystinotic fibroblasts were purchased from the Coriell Mutant Cell Repository, and cultured in Coon modification of Ham F12 medium, supplemented with 10% fetal calf serum (FCS). Renal proximal tubule epithelial (RPTE; Biowhittaker Corp.) were cultured in renal epithelial basal medium supplemented with one Singlequots™ kit (Biowhittaker) per 500 mL to make renal epithelial growth media (REGM, Biowhittaker). Fibroblasts and RPTE were maintained in a 5% carbon dioxide, 95% air, humidified incubator at 37° C. (Thoene J. G. et al, 1976 J. Clin. Invest, 58:180-189).
Cultured human renal proximal tubule epithelial cells were incubated with various apoptotic compounds at a concentration of 0.5 mM for 16 hours. Following incubation, cells were stained with CaspASE. Fluorescence-activated cell sorting (Beckman Coulter Epics Elite) was used to determine the percentage of cells undergoing apoptosis from each treatment group.

The subject of data set [4] is normal fibroblasts. The experiment in a line: Apoptosis after lysosomal cystine loading, CaspACE assay (FIG. 1). As to conditions: 0.5 mM CDME 1 hour pretreatment, then TNF-a or UV, 16 hours in CDME-containing medium; control rate 7.2+/−1.3%. The data set is classed as cell-based, human. As for the experimental part: 1. The CaspACE Assay • CaspACE (Promega) is an FITC-conjugated cell-permeable form of the pan-caspase inhibitor zVAD-Fmk, which binds to activated caspase(s). Cells were incubated in FITC-VAD-Fmk-containing medium (10 μM for 30 minutes at 37° C.), washed, and then fixed in 10% buffered formalin (30 minutes at room temperature) before analysis. The cells were visually enumerated by fluorescence microscopy, scoring a minimum of five fields (250 to 300 cells) for fluorescence in triplicate followed by counting all cells in the same field by light microscopy, with a minimum of 750 cells scored per condition. The apoptosis rate is the total number of cells that fluoresce divided by the total cells in the field.
as §2, §3

For data set [5], the system named is liver of black mice. Description: Liver cystine concentration after CDME injection (CBP and BCA assays). The format is in vivo, mouse. The method, then: as §1
CDME was evaluated in mice for cystine generation in response to varying doses as follows: A stock solution of CDME in PBS was prepared having a concentrations of 1.8 g CDME/500 μL PBS. The stock solution was diluted to generate solutions for administration. 500 μL of diluted solutions were injected intraperitoneally into black mice (body mass ˜0.03 kg). All injections were performed in duplicate.
Following administration of the solutions of Table 6, the endogenous cystine concentrations in two organs (kidney and liver) were examined for the 6 mice, i.e., the CDME-injected mice as well as black, heterozygous, and wild-type control mice. The analysis was performed using the cystine binding protein CBP assay of Example 1 and the Bicinchoninic Acid BCA assay (Pierce Biotechnology) for total protein concentration.

“And” between values parts separate entries of the source, which are not always exact repeats. Equal entries are not always repeated.

`COC(=O)[C@@H](N)CSSC[C@H](N)C(=O)OC` [CDME, cystine dimethyl ester]: the “cystine content after treatment with CDME” value in data set [1] (increased from 0.4, before serum withdrawal) was found to be 1.3 nmols cystine/10^6 cells. Besides, in data set [1] (normal content <0.1 nmol/mg protein, UV light experiment), the “cystine content after pre-exposure to CDME” value turned out to be 1.95 nmol/mg protein. Moreover, in data set [2], the “% Apoptosis” value is listed as 37.3%. In addition, in data set [3] (0.5 mM (concentration employed in fibroblasts)), the “toxicity to RPTE cells” value is given as “toxic”. Also, in data set [3] (RPTE cells, method states 0.5 mM for 16 hours, CaspASE, FACS), the “percentage of cells undergoing apoptosis” value is given as 39.7%. The “apoptotic rate after exposure to CDME” value in data set [4] was 18.7+/−5.4%. Also, the “Liver Cystine Concentration” value in data set [5] (5,000 mg CDME/kg intraperitoneally, Mouse #1 and #2) was 230 nmol cystine/mg protein and 150 nmol cystine/mg protein; in data set [5] (10,000 mg CDME/kg intraperitoneally, Mouse #3), 6.7 nmol cystine/mg protein.
